The text below walks through data of US10167279B2 (NOVARTIS AG, priority 2014, dated 2019).

For the experiment, the target named is C-Raf FL (Homo sapiens (Human), UniProt P04049, Y340E/Y341E). In words: In vitro Raf activity determination (Alpha Screen, phospho-MEK), C-Raf FL (full length, Y340E/Y341E). The format is biochemical. As to conditions: ATP 1 μM; 60 min pre-incubation; 1 hour reaction; column head does not say FL or TR. An outline of the steps: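 Read-out is AlphaScreen luminescence using rabbit anti-p-MEK with protein A beads after EDTA stop, with IC50 fitted by non-linear regression. Reaction: Sf9-derived C-Raf plus biotinylated E. coli MEK1 K97R substrate, pH 7.5 Tris/MgCl2/DTT buffer, compound preincubated 60 min at room temperature.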
Sequence of C-Raf FL (P04049 whole entry Y340E/Y341E): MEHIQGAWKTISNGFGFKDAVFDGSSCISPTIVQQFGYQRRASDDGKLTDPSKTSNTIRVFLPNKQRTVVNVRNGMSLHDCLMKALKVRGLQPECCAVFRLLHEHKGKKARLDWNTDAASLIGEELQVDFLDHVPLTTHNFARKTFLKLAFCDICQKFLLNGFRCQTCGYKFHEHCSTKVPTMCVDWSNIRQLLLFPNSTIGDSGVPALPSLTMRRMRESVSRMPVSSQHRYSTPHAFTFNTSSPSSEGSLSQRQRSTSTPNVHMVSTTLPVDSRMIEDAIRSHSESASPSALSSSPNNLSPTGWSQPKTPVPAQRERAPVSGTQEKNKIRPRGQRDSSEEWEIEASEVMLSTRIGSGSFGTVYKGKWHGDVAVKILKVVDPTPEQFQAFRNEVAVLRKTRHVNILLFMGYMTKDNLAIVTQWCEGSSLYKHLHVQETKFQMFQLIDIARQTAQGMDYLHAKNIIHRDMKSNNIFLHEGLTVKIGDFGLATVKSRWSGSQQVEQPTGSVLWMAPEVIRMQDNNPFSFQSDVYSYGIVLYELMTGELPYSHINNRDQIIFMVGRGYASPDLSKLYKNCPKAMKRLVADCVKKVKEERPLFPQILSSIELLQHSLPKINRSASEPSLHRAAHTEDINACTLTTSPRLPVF
Sequence of C-Raf FL (P63104 whole entry partner): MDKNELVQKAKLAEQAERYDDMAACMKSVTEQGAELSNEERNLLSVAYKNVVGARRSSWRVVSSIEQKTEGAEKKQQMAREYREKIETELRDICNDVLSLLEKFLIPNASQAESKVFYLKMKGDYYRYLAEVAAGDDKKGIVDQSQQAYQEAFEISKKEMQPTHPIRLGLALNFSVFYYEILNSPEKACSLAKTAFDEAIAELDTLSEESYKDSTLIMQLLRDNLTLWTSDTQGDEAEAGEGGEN
For `Cc1ccc(NC(=O)c2cccc(C(F)(F)F)c2)cc1-c1cc(C2COC2)c2nccn2n1` [Example 6, N-(4-methyl-3-(8-(oxetan-3-yl)imidazo[1,2-b]pyridazin-6-yl)phenyl)-3-(trifluoromethyl)benzamide], half-maximal inhibition (IC50) required 0.3 nM.
With `COC1(c2cc(-c3cc(NC(=O)c4cccc(C(F)(F)F)c4)cnc3C)cc(OCCO)n2)COC1` [Example 160, N-(2′-(2-hydroxyethoxy)-6′-(3-methoxyoxetan-3-yl)-2-methyl-[3,4′-bipyridin]-5-yl)-3-(trifluoromethyl)benzamide] the figure was 0.7 nM; with `CCN1CCC(Oc2nnc(-c3cc(NC(=O)c4ccnc(C(F)(F)F)c4)ccc3C)cc2C2CCOCC2)CC1` [Example 314, N-(3-(6-((1-ethylpiperidin-4-yl)oxy)-5-(tetrahydro-2H-pyran-4-yl)pyridazin-3-yl)-4-methylphenyl)-2-(trifluoromethyl) isonicotinamide], 0.06 nM.
On to `Cc1ccc(NC(=O)c2ccnc(C(F)(F)F)c2)cc1-c1cc(C2CCOCC2)nc(N2CCC(O)CC2)c1` [Example 187, N-(3-(2-(4-hydroxypiperidin-1-yl)-6-(tetrahydro-2H-pyran-4-yl)pyridin-4-yl)-4-methylphenyl)-2-(trifluoromethyl) isonicotinamide], for which the midpoint of inhibition, the IC50, lay at 0.684 nM.
For `COC1(c2cc(-c3cc(NC(=O)c4cc(C(F)(F)F)ccn4)ccc3C)cc(NCCO)n2)COC1` [Example 154, N-(3-(2-((2-hydroxyethyl)amino)-6-(3-methoxyoxetan-3-yl)pyridin-4-yl)-4-methylphenyl)-4-(trifluoromethyl)picolin-amide], the IC50 (as a rule, the concentration that inhibits the measured activity by half) was determined as 0.04 nM.
With `Cc1ccc(NC(=O)c2cnnc(C(F)(F)F)c2)cc1-c1cc(OCCO)nc(C2(C)CCOCC2)c1` [Example 207, N-(3-(2-(2-hydroxyethoxy)-6-(4-methyltetrahydro-2H-pyran-4-yl)pyridin-4-yl)-4-methylphenyl)-6-(trifluoromethyl) pyridazine-4-carboxamide] the figure was 0.1 nM; with `CCOc1ncc(-c2cc(NC(=O)c3cnnc(C(F)(F)F)c3)cnc2C)cc1C1CCOCC1` [Example 163, N-(6′-ethoxy-2-methyl-5′-(tetrahydro-2H-pyran-4-yl)-[3,3′-bipyridin]-5-yl)-6-(trifluoromethyl) pyridazine-4-carboxamide], 0.3 nM.
Compound `Cc1ccc(NC(=O)c2ccnc(C(F)(F)F)c2)cc1-c1cc(C2CCOCC2)c(N[C@@H](C)CO)nn1` [Example 309, (S)-N-(3-(6-((1-hydroxypropan-2-yl)amino)-5-(tetrahydro-2H-pyran-4-yl)pyridazin-3-yl)-4-methylphenyl)-2-(trifluoromethyl) isonicotinamide] came in with an IC50 of 0.02 nM.
In turn, `Cc1ccc(NC(=O)c2ccnc(C(C)(F)F)c2)cc1-c1cnc(-c2cn(C)nc2C)c(C2(O)COC2)c1` [Example 12, 2-(1,1-difluoroethyl)-N-(3-(6-(1,3-dimethyl-1H-pyrazol-4-yl)-5-(3-hydroxyoxetan-3-yl)pyridin-3-yl)-4-methylphenyl)isonicotinamide] had an IC50 of 2 nM.
With `Cc1ccc(NC(=O)c2ccnc(C(F)(F)F)c2)cc1-c1cc(OCCO)nc(C2(C(F)F)COC2)c1` [Example 58, N-(3-(2-(3-(difluoromethyl)oxetan-3-yl)-6-(2-hydroxyethoxy)pyridin-4-yl)-4-methylphenyl)-2-(trifluoromethyl)isonicotin-amide] the figure was 0.0155 nM; with `CCC(F)(F)c1cc(C(=O)Nc2cnc(C)c(-c3cc(NCCO)nc(C4CCOCC4)c3)c2)ccn1` [Example 182, 2-(1,1-difluoropropyl)-N-(2′-((2-hydroxyethyl)amino)-2-methyl-6′-(tetrahydro-2H-pyran-4-yl)-[3,4′-bipyridin]-5-yl) isonicotinamide], 0.951 nM.
Next, `Cc1ncc(NC(=O)c2cccc(C(F)(F)F)c2)cc1-c1cc(OCCO)nc(C2(CF)COC2)c1` [Example 132, N-(2′-(3-(fluoromethyl)oxetan-3-yl)-6′-(2-hydroxyethoxy)-2-methyl-[3,4′-bipyridin]-5-yl)-3-(trifluoromethyl)benzamide]: 0.0853 nM.
